Data published in ChEMBL document CHEMBL2074165, “Evaluation of an immortalized retinal endothelial cell line as an in vitro model for drug transport studies across the blood-retinal barrier” (Pharm Res, 2003).

Target: ATP-dependent translocase ABCB1 (Homo sapiens, UniProt P08183)
Test: TP_TRANSPORTER: transepithelial transport (basal to apical) of AGN 197075 at a concentration of 10 uM in MDR1-expressing MDCK cells
Assay type: functional, cell-based
Details: dog

Sequence of ATP-dependent translocase ABCB1 (P08183 whole entry): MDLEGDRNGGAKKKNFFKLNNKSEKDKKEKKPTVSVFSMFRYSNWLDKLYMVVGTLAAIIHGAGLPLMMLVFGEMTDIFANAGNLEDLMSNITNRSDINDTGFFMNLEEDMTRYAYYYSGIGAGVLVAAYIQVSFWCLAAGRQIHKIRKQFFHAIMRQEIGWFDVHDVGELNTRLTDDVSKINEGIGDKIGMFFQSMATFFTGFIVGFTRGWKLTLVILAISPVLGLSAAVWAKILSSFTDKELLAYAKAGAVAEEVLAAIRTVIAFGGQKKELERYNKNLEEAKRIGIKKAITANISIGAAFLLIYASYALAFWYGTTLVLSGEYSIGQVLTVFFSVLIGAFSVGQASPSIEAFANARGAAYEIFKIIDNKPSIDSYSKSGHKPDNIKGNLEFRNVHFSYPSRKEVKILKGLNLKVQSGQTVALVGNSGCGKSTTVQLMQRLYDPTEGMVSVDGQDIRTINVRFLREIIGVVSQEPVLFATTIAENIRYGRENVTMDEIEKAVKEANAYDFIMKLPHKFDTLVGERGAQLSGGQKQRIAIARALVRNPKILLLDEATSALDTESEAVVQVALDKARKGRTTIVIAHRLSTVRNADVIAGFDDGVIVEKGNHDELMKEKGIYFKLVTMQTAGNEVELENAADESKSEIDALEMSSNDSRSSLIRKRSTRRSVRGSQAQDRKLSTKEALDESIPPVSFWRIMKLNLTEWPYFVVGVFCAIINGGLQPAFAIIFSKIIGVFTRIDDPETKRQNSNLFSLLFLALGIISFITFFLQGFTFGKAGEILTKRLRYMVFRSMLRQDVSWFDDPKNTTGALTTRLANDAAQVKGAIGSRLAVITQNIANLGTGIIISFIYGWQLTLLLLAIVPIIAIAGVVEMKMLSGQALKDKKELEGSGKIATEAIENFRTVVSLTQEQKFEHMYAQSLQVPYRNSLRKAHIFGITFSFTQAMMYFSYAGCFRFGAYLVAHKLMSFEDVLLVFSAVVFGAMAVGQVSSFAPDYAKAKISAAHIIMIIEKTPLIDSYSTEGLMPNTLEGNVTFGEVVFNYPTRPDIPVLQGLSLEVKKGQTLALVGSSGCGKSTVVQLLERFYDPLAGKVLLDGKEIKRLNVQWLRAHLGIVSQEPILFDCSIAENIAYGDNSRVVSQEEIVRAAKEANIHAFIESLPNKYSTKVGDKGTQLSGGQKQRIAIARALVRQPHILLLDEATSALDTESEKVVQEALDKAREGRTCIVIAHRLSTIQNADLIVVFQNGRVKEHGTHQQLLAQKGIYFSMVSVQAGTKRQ

- Activity: substrate [+]
SMILES: OCCNC(=S)NCc1cccc(Cl)c1F
